Test results taken from publication PMC6963673, “Phenylboronic Acids Probing Molecular Recognition against Class A and Class C β-lactamases” (Antibiotics, 2019).
Where two headings read alike, the source gives them in different places.

Tests used:
[1] = system: clinical isolates of Klebsiella pneumoniae expressing KPC-2; assay: Checkerboard microdilution assay and FICI, meropenem plus inhibitor; assay type: cell-based; details: for FICI Antibiotic + inhibitor: MEM + inhibitor, synergy FICI ≤0.5, indifference >0.5 and ≤4, antagonism >4; for nature of interaction with antibiotic: Klebsiella pneumoniae strains, in combination with MEM
Experimental: (§1) To assess the nature of the in vitro interactions between the compounds and antibiotics against selected clinical strains, the data obtained from the checkerboard assay were used to calculate the fractional inhibitory concentration index (FICI). Briefly, exponential cultures of the bacterial strains in Mueller Hinton broth were inoculated in the wells of microtiter plates containing different concentrations of the cited antibiotics, with and without phenylboronic acids, and incubated at 37 °C for 18 hours. The growth in each well was quantified spectrophotometrically at 595 nm by a microplate reader TECAN Infinite (Tecan Trading AG, Switzerland). The minimal inhibitory concentration (MIC) for each drug and combination of drugs was defined as the concentration of drug that reduced growth by 80% compared to that of organisms grown in the absence of drug. The fractional inhibitory concentration index (FICI) is the mathematical expression of the effect of the combination of antibacterial agents expressed in Equation (1):(1) ΣFIC=FICA+FICB=MICAB/MICA+MICBA/MICB in which MICA and MICB are the MICs of drugs A and B acting alone, and MICAB and MICBA are the MICs of drugs A and B in combination. Synergy is defined when the FICI is ≤0.5, antagonism when the FICI is > 4, and indifference when the FICI is >0.5 and ≤4.

[2] = biological target: T1, GES-5 (Klebsiella pneumoniae, UniProt Q09HD0); assay: In vitro enzyme inhibition assay against GES-5 (nitrocefin reporter substrate); assay type: biochemical
T1 construct: made in house
Text: (§2) Expression and purification of recombinant KPC-2 and GES-5 have been performed as already reported. For recombinant AmpC from Pseudomonas aeruginosa, the optimized full-length synthetic gene was purchased (GeneArt service under Life Technologie) and subcloned into pRham vector to have it in the full-length version. Protein was expressed according to standard protocol: P. aeruginosa AmpC-β-lactamase was obtained from a culture of E. coli BL21(DE3), carrying the plasmid vector pRham-AmpC. 1L of LB-medium with kanamycin 50 μg/mL, at 37 °C, 150 RPM for 24 hrs. Expression was induced by 0.2% w/v Rhamnose. After 5–6 hours the cell broth was centrifuged at 4500 RPM, 4 °C, for 20 min. The sample was loaded on a column packed with 25 mL of Affigel-10 (Biorad) functionalized with 3 MAPB (3-methylaminophenylboronic acid). The column was previously equilibrated with the loading buffer. The protein was eluted (flow rate, 1 mL/min) with 5 column-volumes of elution-buffer (0.5 M boric acid, 0.5 M NaCl, pH 7.0). β-lactamase activity was checked in each elution fraction using 200 μM CENTA [35]. Active fractions were pooled, concentrated by ultrafiltration using a Millipore Ultra-15 (Ultracel-10K; Millipore) and checked by SDS-Page. The protein pool final concentration (1 mg/mL) was assessed using Bradford and UV-Vis assays. Purified AmpC β-lactamase was stored at −80 °C [36].
(§3) The half-maximal inhibitory concentration (IC50) of phenylboronic acid derivatives was determined as follows. Reactions were monitored using a Jasco V-730 spectrophotometer at […] wavelength. Boronic acids were dissolved in dimethyl sulfoxide (DMSO) to a concentration of 10 mM and stored at −20°C. Each compound was tested at concentrations ranging from 1 µM to 200 µM for inhibitory activity vs full-length KPC-2 enzyme, GES-5 and AmpC in 50 mM of PB + 50 mM KCl at pH 7.4 at 25°C with 0.01% v/v Triton X-100, to avoid compound aggregation and promiscuous inhibition in presence of nitrocefin as reported substrate. For tests against KPC-2, reporter substrate nitrocefin was used at 40 μM, (Km 36 μM) while for tests against GES-5 and AmpC reporter substrate nitrocefin was used at 200 μM (Km 208 μM and Km 200 respectively). All the experiments were performed in triplicate. Experimental error never exceeded 5%. The reaction was typically initiated by adding the enzyme to the reaction buffer last. The IC50 values were determined by measuring the rate of hydrolysis of a reporter substrate in the presence of five different inhibitor concentrations at λ 482 nm. The binding affinity ki was estimated, for each compound in the library, from the determined IC50 by Cheng–Prusoff equation as per competitive inhibition (Table 1).

[3] = system: Pseudomonas aeruginosa overexpressing AmpC; assay: Checkerboard microdilution assay and FICI, ceftazidime plus inhibitor; assay type: cell-based; details: for FICI Antibiotic + inhibitor: CAZ + inhibitor, synergy FICI ≤0.5, indifference >0.5 and ≤4, antagonism >4; for nature of interaction with antibiotic: Pseudomonas aeruginosa, in combination with CAZ; for MIC Antibiotic: antibiotic alone
Experimental: To investigate the ability of our phenylboronic acid derivatives 2-5 to reach the periplasmic space, where SBLs are secreted and concentrated in Gram negative bacteria, and synergically protect β-lactam antibiotics hydrolysis by BLs, drug interactions model via the fractional inhibitory concentration index (FICI) was determined against clinical strains overexpressing BLs targets of our studies (Table 2).
as §1

[4] = biological target: T2, KPC-2 (Klebsiella pneumoniae, UniProt Q9F663); assay: In vitro enzyme inhibition assay against KPC-2 (nitrocefin reporter substrate); assay type: biochemical; details: for drop in potency against KPC-2: meta substituent
T2 construct: made in house
Text: as §2, §3

[5] = biological target: T3, AmpC (Pseudomonas aeruginosa, UniProt P24735); assay: In vitro enzyme inhibition assay against AmpC (nitrocefin reporter substrate); assay type: biochemical; details: for drop in potency against AmpC: ortho substitution
T3 construct: subcloned into pRham vector to have it in the full-length version; made in house; host or cells: E. coli BL21(DE3), plasmid pRham-AmpC
Text: as §2, §3

[6] = biological target: T3, AmpC; details: read-out: AmpC Ki; lead phenylboronic acid; cited from earlier work

T3 sequence (P24735 27-397): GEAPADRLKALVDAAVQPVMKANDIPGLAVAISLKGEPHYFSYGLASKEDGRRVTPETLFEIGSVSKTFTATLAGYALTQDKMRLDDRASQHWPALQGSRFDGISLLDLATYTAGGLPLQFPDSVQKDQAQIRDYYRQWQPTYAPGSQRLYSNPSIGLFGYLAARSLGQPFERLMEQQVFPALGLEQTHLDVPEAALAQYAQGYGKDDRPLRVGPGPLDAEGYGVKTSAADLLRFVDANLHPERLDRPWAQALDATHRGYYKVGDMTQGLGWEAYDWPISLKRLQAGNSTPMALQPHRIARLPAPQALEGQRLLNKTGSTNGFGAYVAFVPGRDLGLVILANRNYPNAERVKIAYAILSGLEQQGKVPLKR
T1 sequence (Q09HD0 19-287): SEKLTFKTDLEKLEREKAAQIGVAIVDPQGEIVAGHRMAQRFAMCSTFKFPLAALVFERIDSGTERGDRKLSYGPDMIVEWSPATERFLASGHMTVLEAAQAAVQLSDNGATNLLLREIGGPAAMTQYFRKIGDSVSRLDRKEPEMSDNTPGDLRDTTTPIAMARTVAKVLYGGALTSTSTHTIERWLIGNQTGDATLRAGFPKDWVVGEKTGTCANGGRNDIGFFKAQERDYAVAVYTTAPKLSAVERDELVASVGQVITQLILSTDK
T2 sequence (Q9F663 25-293 limits assumed): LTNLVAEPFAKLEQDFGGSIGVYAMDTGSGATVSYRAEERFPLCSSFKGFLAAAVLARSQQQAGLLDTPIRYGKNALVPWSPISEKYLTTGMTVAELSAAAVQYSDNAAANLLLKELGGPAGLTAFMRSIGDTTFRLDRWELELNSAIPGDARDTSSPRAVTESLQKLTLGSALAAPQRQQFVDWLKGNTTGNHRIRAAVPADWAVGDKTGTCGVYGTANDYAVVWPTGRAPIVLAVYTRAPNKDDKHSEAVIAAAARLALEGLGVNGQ

Compound	FICI Antibiotic + inhibitor ([1]; Klebsiella 53A8)	FICI Antibiotic + inhibitor ([1]; Klebsiella 53A9)	FICI Antibiotic + inhibitor ([1]; Klebsiella 99D8)	Ki [2]	FICI Antibiotic + inhibitor ([3]; P aeruginosa 12)	FICI Antibiotic + inhibitor ([3]; P aeruginosa 148)	nature of interaction with antibiotic [3]	Ki [4]	drop in potency against KPC-2 [4]	Ki [5]	MIC Antibiotic ([3]; P aeruginosa 12)	MIC Antibiotic ([3]; P aeruginosa 148)	nature of interaction with antibiotic [1]	drop in potency against AmpC [5]	Ki [6]	higher activity against GES-5 with respect to KPC-2 ([2]; ratio of Ki KPC-2 to Ki GES-5)
O=C(O)CCc1cccc(B(O)O)c1 [Compound 5]	2	1.5	2	69.4 µM	0.3750	0.0936	synergism can be defined	53 µM	up to 47 fold	5.3 µM	–	–	–	–	–	–
CC(C)(O/N=C(\C(=O)N[C@@H]1C(=O)N2C(C(=O)[O-])=C(C[n+]3ccccc3)CS[C@H]12)c1csc(N)n1)C(=O)O [CAZ, ceftazidime, reference compound]	–	–	–	–	–	–	–	–	–	–	32 mg/L	128 mg/L	–	–	–	–
O=C(O)CCc1ccccc1B(O)O [Compound 4]	0.1875	0.2500	0.1250	1.83 µM	2	1.5	–	1.13 µM	–	76.1 µM	–	–	clear synergistic activity	up to 50 fold	–	–
OB(O)c1ccccc1 [Compound 1, phenylboronic acid]	–	–	–	–	–	–	–	–	–	–	–	–	–	–	4.85 µM	–
O=C(O)C=Cc1ccccc1B(O)O [Compound 2, [2-(2-carboxyvinyl)-phenyl]boronic acid]	0.0117	0.0175	0.0156	0.11 µM	2	1	–	2.43 µM	–	41.7 µM	–	–	clear synergistic activity	up to 50 fold	–	23 fold
O=C(O)C=Cc1cccc(B(O)O)c1 [Compound 3, [3-(2-carboxyvinyl)phenyl] boronic acid]	2	1.5	2	24.6 µM	0.5	0.375	synergism can be defined	31.2 µM	up to 47 fold	1.45 µM	–	–	–	–	–	–
